The numbers were not newly measured in patent US20090291140A1, “TREATMENT OF DY[…] TRANSDERMAL ADMINISTRATION OF NONSTEROIDAL ANTI-INFLAMMATORY DRUGS” (priority 2008, published 2009), which cites them from elsewhere.

For the data set, the target named is T1, 5-lipoxygenase (Homo sapiens, UniProt P09917).
T1 sequence (P09917 1-674): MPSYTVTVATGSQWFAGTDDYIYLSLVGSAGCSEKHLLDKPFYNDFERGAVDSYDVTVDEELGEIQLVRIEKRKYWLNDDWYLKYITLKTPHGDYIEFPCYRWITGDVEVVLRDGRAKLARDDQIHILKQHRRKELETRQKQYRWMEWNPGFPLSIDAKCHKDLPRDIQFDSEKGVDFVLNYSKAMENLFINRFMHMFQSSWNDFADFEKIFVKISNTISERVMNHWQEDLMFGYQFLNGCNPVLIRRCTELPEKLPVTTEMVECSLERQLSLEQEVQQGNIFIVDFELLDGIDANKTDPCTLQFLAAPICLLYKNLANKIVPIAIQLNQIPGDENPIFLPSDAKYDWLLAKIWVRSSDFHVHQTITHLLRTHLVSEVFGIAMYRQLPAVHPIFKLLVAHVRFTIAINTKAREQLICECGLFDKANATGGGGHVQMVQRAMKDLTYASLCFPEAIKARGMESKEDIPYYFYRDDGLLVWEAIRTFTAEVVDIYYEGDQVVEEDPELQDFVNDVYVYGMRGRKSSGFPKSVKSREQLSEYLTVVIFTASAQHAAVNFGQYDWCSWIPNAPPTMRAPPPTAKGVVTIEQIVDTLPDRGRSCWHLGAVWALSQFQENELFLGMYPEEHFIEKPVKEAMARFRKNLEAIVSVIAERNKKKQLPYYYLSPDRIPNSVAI
The conditions noted are these: in-vitro studies.

Consider `Cc1ccc(Cl)c(Nc2ccccc2C(=O)O)c1Cl` [meclofenamate], for which the “inhibition of the activity of 5-lipoxygenase” value is “inhibit the activity of 5-lipoxygenase”.
